Results published in PubChem BioAssay AID493102 (Broad Institute, 2011).

Test system: SK-MEL-5 TRPM1-promoter luciferase reporter, 24 h
Assay: TRPM1 promoter luciferase signal decrease, dose response, MITF inhibitor project, cell-based, SK-MEL-5, cherry-picked, set 4 (AID 493102);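 also: actives lower the luciferase signal so the potency reflects inhibition of reporter expression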

**Q.** With `Cc1cccc(N2C(=O)NC(=O)/C(=C\c3cccn3-c3ccc(Cl)cc3)C2=O)c1` as the molecule, how does the AC50 read?
**A.** 8.91 µM

**Q.** Which AC50 does the source give for `CCOc1ccc(-n2c(-c3ccc(OC)cc3)c[n+]3c2CCCCC3)cc1` here?
**A.** 2.13 µM

**Q.** Which AC50 does the source give for `Cc1ccc2nc(NC(=O)CCCC(=O)O)sc2c1` here?
**A.** 12.1 µM

**Q.** Which AC50 does the source give for `O=C1C(Nc2ccccc2)=C(N2CCCCC2)C(=O)c2ccccc21` here?
**A.** 6.67 µM

**Q.** Which AC50 does the source give for `O=C(Nc1ccc(N2CCCC2)c(Cl)c1)c1ccc([N+](=O)[O-])o1` here?
**A.** 11.1 µM

**Q.** For `O=C(CCl)Nc1ccc(-c2ccccc2)cc1`, which AC50 is on record?
**A.** 7.3 µM

**Q.** `CCOC(=O)c1c(C)oc2c1C(=O)c1ccccc1C2=O` was tested. Which AC50 did it give?
**A.** 3.18 µM

**Q.** For `Cn1c(/C=C/c2cccc([N+](=O)[O-])c2)c([N+](=O)[O-])c(=O)n(C)c1=O`, which AC50 is on record?
**A.** 27.8 µM

**Q.** `O=C(Nc1ccccc1N1CCOCC1)c1ccc([N+](=O)[O-])s1` was tested. Which AC50 did it give?
**A.** 12.3 µM

**Q.** How did the AC50 turn out when `Cc1ccn2c(Nc3ccccc3)c(-c3ccccn3)nc2c1` was run?
**A.** 9.31 µM

**Q.** For `O=C(COc1ccc(Cl)cc1Cl)Nc1ccccn1`, which AC50 is on record?
**A.** 2.19 µM

**Q.** Which AC50 does the source give for `COCCN(CC(=O)NC1CCCCC1)C(=O)/C=C/C(=O)c1ccc(OC)cc1O` here?
**A.** 5.48 µM

**Q.** `COc1cc(C2C(C#N)=C(N)Oc3cc4c(cc32)OCO4)cc(OC)c1OC` (stereo unspecified) was tested. Which AC50 did it give?
**A.** 0.365 µM

**Q.** How did the AC50 turn out when `CCCCCCN1C=CC(=C2C(=O)c3ccccc3C2=O)C=C1` was run?
**A.** 3.86 µM

**Q.** Which AC50 does the source give for `Cn1c(SC2=CS(=O)(=O)c3ccccc32)nc2ccccc21` here?
**A.** 6.72 µM

**Q.** How did the AC50 turn out when `CN(c1ccc2nc3ccccc3c(=O)n2n1)C1CCCCC1` was run?
**A.** 1.29 µM

**Q.** How did the AC50 turn out when `O=S1(=O)CCC(NC(=S)SCc2ccccc2Br)C1` (stereo unspecified) was run?
**A.** 25.6 µM

**Q.** With `CC(C)(C)C(=O)Nc1cc2nn(-c3ccccc3)nc2cc1Cl` as the molecule, how does the AC50 read?
**A.** 0.495 µM

**Q.** With `CN(Cc1ccccc1)C1=CC(=[N+]2CCCC2)CC(C)(C)C1` as the molecule, how does the AC50 read?
**A.** 1.55 µM

**Q.** For `Cc1cc(NC(=O)c2cncc(Br)c2)ccc1NC(=O)c1cc2ccccc2o1`, which AC50 is on record?
**A.** 10.4 µM

**Q.** Which AC50 does the source give for `Cc1ccc(C(C)C)c(OCc2nn(CC(=O)c3ccc(Cl)cc3)c3[n+]2CCCCC3)c1` here?
**A.** 9.83 µM

**Q.** How did the AC50 turn out when `CC(/C=N/NC(=O)c1cc(-c2ccncc2)nc2ccccc12)=C\c1ccco1` was run?
**A.** 2.4 µM

**Q.** Which AC50 does the source give for `CC(C)(C)c1ccc(C(=O)Nc2sc3c(c2C(=O)O)CCC3)cc1` here?
**A.** 2.09 µM

**Q.** How did the AC50 turn out when `CN(C)CCCN(C(=O)c1ccc(Cl)s1)c1nc2cc3c(cc2s1)OCO3` was run?
**A.** 22.9 µM

**Q.** `O=C(Nc1ccc2oc(-c3cccnc3)nc2c1)c1ccc([N+](=O)[O-])o1` was tested. Which AC50 did it give?
**A.** 14.2 µM

**Q.** `CC(C)n1cc(/C=C/c2cc[n+](C)cc2)c2ccccc21` was tested. Which AC50 did it give?
**A.** 8.14 µM

**Q.** `O=c1c2ccccc2cnn1CCOc1ccccc1` was tested. Which AC50 did it give?
**A.** 7.2 µM

**Q.** For `Cc1ccc(-n2nnnc2CNC(=O)c2ccc([N+](=O)[O-])o2)cc1C`, which AC50 is on record?
**A.** 9.72 µM

**Q.** For `Cc1ccccc1C(=O)N/N=C/c1ccc([N+](=O)[O-])s1`, which AC50 is on record?
**A.** 1.88 µM

**Q.** `COC1=C(Nc2ccccc2)C(=O)c2ccccc2C1=O` was tested. Which AC50 did it give?
**A.** 4.53 µM

**Q.** How did the AC50 turn out when `Cc1ccc(C(C)C)c(OCc2nn(CC(=O)c3ccc(OC(F)F)cc3)c3[n+]2CCCCC3)c1` was run?
**A.** 9.17 µM

**Q.** How did the AC50 turn out when `N/C(=N\OC(=O)c1ccccc1)c1ccccn1` was run?
**A.** 11.9 µM

**Q.** Which AC50 does the source give for `C=CCN1C(=O)NC(=O)/C(=C/C=C/c2ccccc2)C1=O` here?
**A.** 5.94 µM

**Q.** For `O=C(CCl)N1N=C(c2ccco2)CC1c1cccs1` (stereo unspecified), which AC50 is on record?
**A.** 7.84 µM

**Q.** For `C#CCCc1ccccc1/C=[N+](/C)[O-]`, which AC50 is on record?
**A.** 9.4 µM

**Q.** How did the AC50 turn out when `Cc1ccc(C(=O)N/N=C\c2ccc([N+](=O)[O-])s2)cn1` was run?
**A.** 2.95 µM

**Q.** For `Cc1ccc(-c2cn3cc(C)ccc3n2)cc1`, which AC50 is on record?
**A.** 2.03 µM

**Q.** Which AC50 does the source give for `CCN1CCN(CCCNC(=O)c2ccc3c(c2)NC(=O)/C(=C\c2cccc(C)c2)S3)CC1` here?
**A.** 9.93 µM

**Q.** For `Cc1ccc(S(=O)(=O)N2CCCCC2)cc1NC(=O)Cn1ncc(Cl)c(Cl)c1=O`, which AC50 is on record?
**A.** 6.21 µM

**Q.** For `Cc1ccc(S(=O)(=O)CC(CN2CCCCC2)N2CCCCC2)cc1` (stereo unspecified), which AC50 is on record?
**A.** 8.1 µM

**Q.** Which AC50 does the source give for `O=C(/C=C\Nc1ccc2c(c1)OCO2)c1ccccn1` here?
**A.** 2.08 µM

**Q.** How did the AC50 turn out when `COc1ccc(C(C(=O)NC2CCCCC2)N(C(=O)CCl)c2ccc(OC)cc2)cc1` (stereo unspecified) was run?
**A.** 9.27 µM

**Q.** For `c1ccc(-c2cn3nc4c(nc3n2)CCCC4)cc1`, which AC50 is on record?
**A.** 5.89 µM

**Q.** `CN(C)c1ccc(/C=C(\C#N)c2ccccn2)cc1` was tested. Which AC50 did it give?
**A.** 6.32 µM

**Q.** For `COc1ccc2nc(C)cc(SCC(=O)N/N=C/c3ccc(O)cc3O)c2c1`, which AC50 is on record?
**A.** 10.1 µM

**Q.** Which AC50 does the source give for `CC1=CC2/C=C(\C)CCC(O)C(O)/C=C/C(=O)C23C(=O)NC(CC(C)C)C3C1C` (stereo unspecified) here?
**A.** 6.58 µM

**Q.** How did the AC50 turn out when `CCCCCCCNC(=O)C1(CC2CC(c3ccc(Cl)cc3)=NO2)CCNCC1` (stereo unspecified) was run?
**A.** 14 µM

**Q.** `CCC(=O)N1CCN(c2ccc(NC(=O)c3ccc([N+](=O)[O-])o3)cc2)CC1` was tested. Which AC50 did it give?
**A.** 8.69 µM

**Q.** For `CCOc1ccc(/C=C2\SC(=S)N(CCC(=O)O)C2=O)cc1`, which AC50 is on record?
**A.** 0.577 µM

**Q.** How did the AC50 turn out when `Cc1cc(C)c2c(N)c(C(=O)Nc3ncc(C)s3)sc2n1` was run?
**A.** 1.09 µM

**Q.** Which AC50 does the source give for `Nc1ccc(-c2nc3ccc(C(=O)O)cc3s2)cc1` here?
**A.** 0.866 µM

**Q.** Which AC50 does the source give for `CCCCC[n+]1ccn(C2=C([O-])c3ccccc3C(=O)/C2=N\S(=O)(=O)c2ccccc2)c1` here?
**A.** 5.9 µM

**Q.** With `CCN(CC)S(=O)(=O)c1ccc(NC(=O)c2cccnc2Cl)c(NC(=O)c2cccnc2Cl)c1` as the molecule, how does the AC50 read?
**A.** 7.03 µM

**Q.** How did the AC50 turn out when `CCN(CC)CCCNC1=C(Cl)C(=O)c2ccccc2C1=O` was run?
**A.** 1.79 µM

**Q.** How did the AC50 turn out when `O=C(N/N=C/c1ccc([N+](=O)[O-])s1)C(O)c1ccccc1` (stereo unspecified) was run?
**A.** 4.48 µM

**Q.** How did the AC50 turn out when `Cc1ccc(C(=O)N/C(=C\c2ccc(-c3ccccc3[N+](=O)[O-])o2)C(=O)NCCCN(C)C)cc1` was run?
**A.** 3.28 µM
